For the assay, the system named is primary rat mixed cortical cells. In words: In vitro myelination assay (MBP positive myelin strands, fold myelin pixels above background). The format is cell-based. To be noted: Rattus norvegicus; for fold induction at 1 µM: 1.0 μM compound; for fold induction at 10 µM: 10.0 μM compound. Summed up:
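P1 rat mixed cortical cultures (neurons, OPCs, oligodendrocytes, astrocytes, microglia) grown 14 days at 37 °C with compound, half-medium refreshed with compound on days 6 and 10. Fixed cells stained for MBP; MBP-positive myelin strand pixels per well quantified by automated imaging, reported as fold over no-compound baseline at 1.0 and 10.0 μM.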

Where [1] appears, read: relative to baseline of no added compound, read-out: Fold myelin pixels above background.
Setting [2] is: read-out: Fold myelin pixels above background relative to baseline of no added compound.

Each structure is given as a SMILES string. Like-named read-outs stand apart in the source and are kept apart here.

Regarding `Cc1cc(Nc2ncn(-c3cc(F)cc(F)c3)n2)nc(N2CC(N3CCOCC3)C2)c1` [Compound 537, N-[1-(3,5-difluorophenyl)-1,2,4-triazol-3-yl]-4-methyl-6-(3-morpholinoazetidin-1-yl)pyridin-2-amine], under setting [1], the fold induction at 1 µM fell in the range of 1 to 10 and the fold induction at 10 µM was no more than 1.

Consider `Cc1cc(Nc2ncn(-c3ccc(F)c(F)c3)n2)cc(OCC2CCOCC2)c1` [Compound 627, 1-(3,4-difluorophenyl)-N-[3-methyl-5-(tetrahydropyran-4-ylmethoxy)phenyl]-1,2,4-triazol-3-amine], for which, under setting [1], the fold induction at 1 µM was 1 to 10 and the fold induction at 10 µM lay in the range of 10 to 100.

For the compound `Cc1cc(NC(=O)NC2CCC2)cc(Nc2ncn(-c3ccccc3)n2)c1` [Compound 910, 1-cyclobutyl-3-[3-methyl-5-[(1-phenyl-1,2,4-triazol-3-yl)amino]phenyl]urea], under setting [2], the fold induction at 1 µM was 1 to 10 and the fold induction at 10 µM fell in the range of 10 to 100.

Consider `Cc1cc(Nc2ncn(-c3cc(F)cc(OC(C)C)c3)n2)cc(N2CCN(C3COC3)CC2)c1` [Compound 415, 1-(3-fluoro-5-isopropoxy-phenyl)-N-[3-methyl-5-[4-(oxetan-3-yl)piperazin-1-yl]phenyl]-1,2,4-triazol-3-amine], for which, under setting [1], the fold induction at 1 µM was in the range of 100 to 1000 and the fold induction at 10 µM is no more than 1.

On to `CCNC(=O)N1CCN(c2cc(C(F)(F)F)cc(Nc3ncn(-c4cc(F)cc(F)c4)n3)n2)CC1` [Compound 554, 4-[6-[[1-(3,5-difluorophenyl)-1,2,4-triazol-3-yl]amino]-4-(trifluoromethyl)-2-pyridyl]-N-ethyl-piperazine-1-carboxamide], for which, under setting [1], the fold induction at 1 µM lay in the range of 10 to 100 and the fold induction at 10 µM is 10 to 100.

For `Fc1cc(Nc2ncn(-c3ccc(F)c(F)c3)n2)cc(N2CCOCC2)c1` [Compound 440, 1-(3,4-difluorophenyl)-N-(3-fluoro-5-morpholino-phenyl)-1,2,4-triazol-3-amine], under setting [1], the fold induction at 1 µM was 10 to 100 and the fold induction at 10 µM lay within 10 to 100.

Turning to `Cc1cc(Nc2ccn(C(C)C)n2)cc(Nc2ncn(-c3ccccc3)n2)c1` [Compound 669, N3-(1-isopropylpyrazol-3-yl)-5-methyl-N1-(1-phenyl-1,2,4-triazol-3-yl)benzene-1,3-diamine], under setting [1], the fold induction at 1 µM was in the range of 10 to 100 and the fold induction at 10 µM is no more than 1.

`Cc1cc(Nc2ncn(-c3ccnc(F)c3)n2)cc(N2CCCN(C3COC3)CC2)c1` [Compound 776, 1-(2-fluoro-4-pyridyl)-N-[3-methyl-5-[4-(oxetan-3-yl)-1,4-diazepan-1-yl]phenyl]-1,2,4-triazol-3-amine]: under setting [1], the fold induction at 1 µM was 10 to 100 and the fold induction at 10 µM is no more than 1.

As for `COCCCN1CCN(c2cc(C)cc(Nc3ncn(-c4cc(F)cc(F)c4)n3)c2)CC1` [Compound 850, 1-(3,5-difluorophenyl)-N-[3-[4-(3-methoxypropyl)piperazin-1-yl]-5-methyl-phenyl]-1,2,4-triazol-3-amine], under setting [2], the fold induction at 1 µM was 10 to 100 and the fold induction at 10 µM was no more than 1.

Consider `Cc1cc(Nc2ncn(-c3cc(F)cc(F)c3)n2)cc(N2CC(N3CC4CCC(C3)O4)C2)c1` [Compound 717, 1-(3,5-difluorophenyl)-N-[3-methyl-5-[3-(8-oxa-3-azabicyclo[3.2.1]octan-3-yl)azetidin-1-yl]phenyl]-1,2,4-triazol-3-amine], for which, under setting [1], the fold induction at 1 µM lay in the range of 1 to 10 and the fold induction at 10 µM lay in the range of 10 to 100.

In the case of `Cc1cc(Nc2ncn(-c3ccc(F)cc3)n2)cc(N2CCCC2)c1` [Compound 269, 1-(4-fluorophenyl)-N-(3-methyl-5-pyrrolidin-1-yl-phenyl)-1,2,4-triazol-3-amine], the fold induction at 1 µM (relative to baseline of no added compound, read-out: Fold myelin pixels above background, 1.0 μM) is 1 to 10. Besides, the fold induction at 10 µM (relative to baseline of no added compound, read-out: Fold myelin pixels above background, 10.0 μM) was in the range of 10 to 100.

As to `Cc1cc(Nc2ncn(-c3cccc(C(F)(F)F)c3)n2)cc(OCCN2CCOCC2)c1` [Compound 575, N-[3-methyl-5-(2-morpholinoethoxy)phenyl]-1-[3-(trifluoromethyl)phenyl]-1,2,4-triazol-3-amine], under setting [1], the fold induction at 1 µM is 10 to 100 and the fold induction at 10 µM is no more than 1.

Take `Cc1cc(Nc2ncn(-c3cc(F)cc(F)c3)n2)cc(N2C3COCC2C3)c1` [Compound 694, 1-(3,5-difluorophenyl)-N-[3-methyl-5-(3-oxa-6-azabicyclo[3.1.1]heptan-6-yl)phenyl]-1,2,4-triazol-3-amine]: under setting [1], the fold induction at 1 µM lay within 10 to 100 and the fold induction at 10 µM is no more than 1.

With `Cc1cc(Nc2ncn(-c3cc(F)cc(F)c3)n2)c(F)c(OC2CCOC2)c1` (single isomer, unassigned) [Compound 1028, 1-(3,5-difluorophenyl)-N-(2-fluoro-5-methyl-3-tetrahydrofuran-3-yloxy-phenyl)-1,2,4-triazol-3-amine], under setting [2], the fold induction at 1 µM is 10 to 100 and the fold induction at 10 µM was in the range of 1 to 10.

With `[2H]C1([2H])N(CC)C([2H])([2H])C([2H])([2H])N(c2cc(C)cc(Nc3ncn(-c4cc(F)cc(F)c4)n3)c2)C1([2H])[2H]` [Compound 947, 1-(3,5-difluorophenyl)-N-[3-methyl-5-(2,2,3,3,5,5,6,6-octadeuterio-4-ethyl-piperazin-1-yl)phenyl]-1,2,4-triazol-3-amine], under setting [2], the fold induction at 1 µM was 1 to 10 and the fold induction at 10 µM is no more than 1.

As for `FC(F)c1cccc(-n2cnc(Nc3cc(C(F)F)cc(N4CCN(C5COC5)CC4)n3)n2)c1` [Compound 718, 4-(difluoromethyl)-N-[1-[3-(difluoromethyl)phenyl]-1,2,4-triazol-3-yl]-6-[4-(oxetan-3-yl)piperazin-1-yl]pyridin-2-amine], under setting [1], the fold induction at 1 µM was 10 to 100 and the fold induction at 10 µM lay within 100 to 1000.

Consider `Cc1cc(Nc2ncn(-c3cc(F)cc(F)c3)n2)cc(N2CCC3(CCOC3)CC2)c1` [Compound 814, 1-(3,5-difluorophenyl)-N-[3-methyl-5-(2-oxa-8-azaspiro[4.5]decan-8-yl)phenyl]-1,2,4-triazol-3-amine], for which, under setting [2], the fold induction at 1 µM is 10 to 100 and the fold induction at 10 µM fell in the range of 1 to 10.

Consider `Cc1cc(Nc2ncn(-c3ccc(F)c(F)c3)n2)cc(OC2CCOC2)c1` (stereo not drawn) [Compound 778, 1-(3,4-difluorophenyl)-N-(3-methyl-5-tetrahydrofuran-3-yloxy-phenyl)-1,2,4-triazol-3-amine], for which, under setting [1], the fold induction at 1 µM lay within 10 to 100 and the fold induction at 10 µM fell in the range of 1 to 10.

On to `Cc1cc(Nc2ncn(-c3cc(F)cc(F)c3)n2)cc(N2CC(CN3CCOCC3)C2)c1` [Compound 866, 1-(3,5-difluorophenyl)-N-[3-methyl-5-[3-(morpholinomethyl)azetidin-1-yl]phenyl]-1,2,4-triazol-3-amine], for which, under setting [2], the fold induction at 1 µM is 1 to 10 and the fold induction at 10 µM is 10 to 100.

As for `Fc1cc(-n2cnc(Nc3cc(Cl)cc(N4CC(N5CCOCC5)C4)c3)n2)ccn1` [Compound 819, N-[3-chloro-5-(3-morpholinoazetidin-1-yl)phenyl]-1-(2-fluoro-4-pyridyl)-1,2,4-triazol-3-amine], under setting [2], the fold induction at 1 µM is 10 to 100 and the fold induction at 10 µM lay within 1 to 10.

Take `Fc1ccc(-n2cnc(Nc3cc(C(F)(F)F)cc(N4CCN(C5COC5)CC4)n3)n2)cc1F` [Compound 546, N-[1-(3,4-difluorophenyl)-1,2,4-triazol-3-yl]-6-[4-(oxetan-3-yl)piperazin-1-yl]-4-(trifluoromethyl)pyridin-2-amine]: under setting [1], the fold induction at 1 µM is 1 to 10 and the fold induction at 10 µM was 10 to 100.
